Data taken from US20110152094A1, “Herbicidal compositions comprising flufenacet” (Bayer CropScience AG, priority 2009, published 2011).

Experiments:
Format in all cases: in vivo
[1] = test system: TRZAS = Triticum aestivum, summer wheat; test: Greenhouse trial, activity with different soil types (test method 7); conditions: g of AS/ha: (A) 120, (B) 1200, (A)+(B) 120 + 1200
Experimental: (§1) In the standard design of the test, seeds of various broad-leaved weed and weed grass biotypes (origins) were sown in a 8-13 cm diameter pot filled with natural soil of a standard field soil (loamy silt; non-sterile) and covered with a covering soil layer of about 1 cm. The pots were then cultivated in a greenhouse (12-16 h of light, temperature day 20-22° C., night 15-18° C.) until the time of application. The pots were treated on a laboratory track sprayer with spray liquors comprising the compositions according to the invention, mixtures of the prior art or components used individually. Application of the active compounds or active compound combinations formulated as WG, WP, EC or otherwise was carried out at the appropriate growth stages of the plants. The application rate for the spray application was 100-600 l of water/ha. After the treatment, the plants were returned to the greenhouses.
(§2) About 3 weeks after the application, the soil action or/and foliar action was assessed visually according to a scale of 0-100% in comparison to an untreated comparative group: 0%=no noticeable effect compared to the untreated comparative group; 100%=full effect compared to the untreated comparative group.
(§3) (notes: the term “seeds” also includes vegetative propagation forms such as, for example, rhizome pieces; abbreviations used: h light=hours of illumination, g of AS/ha=gram of active substance per hectare, l/ha=liter per hectare, S=sensitive, R=resistant) • 1. Pre-emergence action against weeds: seeds of various broad-leaved weed and weed grass biotypes (origins) were sown in a 8-13 cm diameter pot filled with natural soil of a standard field soil (loamy silt; non-sterile) and covered with a covering soil layer of about 1 cm. The pots were then cultivated in a greenhouse (12-16 h of light, temperature day 20-22° C., night 15-18° C.) until the time of application. The pots were treated at the BBCH stage 00-10 of the seeds/plants on a laboratory track sprayer with spray liquors comprising the compositions according to the invention, mixtures or components used individually, as WG, WP, EC or other formulations. The application rate for the spray application was 100-600 l of water/ha. After the treatment, the plants were returned to the greenhouses and, when required, treated with fertilizer and watered. • 2. Post-emergence action against weeds: seeds of various broad-leaved weed and weed grass biotypes (origins) were sown in a 8-13 cm diameter pot filled with natural soil of a standard field soil (loamy silt; non-sterile) and covered with a covering soil layer of about 1 cm. The pots were then cultivated in a greenhouse (12-16 h of light, temperature day 20-22° C., night 15-18° C.) until the time of application. The pots were treated at various BBCH stages between 11-25 of the seeds/plants, i.e. generally between two to three weeks after the start of the cultivation, on a laboratory track sprayer with spray liquors comprising the compositions according to the invention, mixtures or components used individually, as WG, WP, EC or other formulations. The application rate for the spray application was 100-600 l of water/ha. After the treatment, the plants were returned to the greenhouses and, when required, treated with fertilizer and watered. • 3. Selective pre-emergence action: seeds of various crop species (origins) were sown in a 8-13 cm diameter pot filled with natural soil of a standard field soil (loamy silt; non-sterile) and covered with a covering soil layer of about 1 cm. The pots were then cultivated in a greenhouse (12-16 h of light, temperature day 20-22° C., night 15-18° C.) until the time of application. The pots were treated at the BBCH stage 00-10 of the seeds/plants on a laboratory track sprayer with spray liquors comprising the compositions according to the invention, mixtures or components used individually, as WG, WP, EC or other formulations. The application rate for the spray application was 100-600 l of water/ha. […]

STEME = Stellaria media = test: as above; conditions: g of AS/ha: (A) 120, (B) 1200, (A)+(B) 120 + 1200
Experimental: as §1, §2, §3

AVEFA = Avena fatua [2] = test: Greenhouse trial, pre-sowing application 7 days prior to sowing (test method 5); conditions: g of AS/ha: (A) 90, (B) 1200, (A)+(B) 90 + 1200
Experimental: as §1, §2
(§4) (notes: the term “seeds” also includes vegetative propagation forms such as, for example, rhizome pieces; abbreviations used: h light=hours of illumination, g of AS/ha=gram of active substance per hectare, l/ha=liter per hectare, S=sensitive, R=resistant) • 1. Pre-emergence action against weeds: seeds of various broad-leaved weed and weed grass biotypes (origins) were sown in a 8-13 cm diameter pot filled with natural soil of a standard field soil (loamy silt; non-sterile) and covered with a covering soil layer of about 1 cm. The pots were then cultivated in a greenhouse (12-16 h of light, temperature day 20-22° C., night 15-18° C.) until the time of application. The pots were treated at the BBCH stage 00-10 of the seeds/plants on a laboratory track sprayer with spray liquors comprising the compositions according to the invention, mixtures or components used individually, as WG, WP, EC or other formulations. The application rate for the spray application was 100-600 l of water/ha. After the treatment, the plants were returned to the greenhouses and, when required, treated with fertilizer and watered. • 2. Post-emergence action against weeds: seeds of various broad-leaved weed and weed grass biotypes (origins) were sown in a 8-13 cm diameter pot filled with natural soil of a standard field soil (loamy silt; non-sterile) and covered with a covering soil layer of about 1 cm. The pots were then cultivated in a greenhouse (12-16 h of light, temperature day 20-22° C., night 15-18° C.) until the time of application. The pots were treated at various BBCH stages between 11-25 of the seeds/plants, i.e. generally between two to three weeks after the start of the cultivation, on a laboratory track sprayer with spray liquors comprising the compositions according to the invention, mixtures or components used individually, as WG, WP, EC or other formulations. The application rate for the spray application was 100-600 l of water/ha. After the treatment, the plants were returned to the greenhouses and, when required, treated with fertilizer and watered. • 3. […]

[3] = test system: MATCH = Matricaria chamomilla; test: as above; conditions: g of AS/ha: (A) 90, (B) 1200, (A)+(B) 90 + 1200
Experimental: as §1, §2, §4

[4] = test system: HORVW = Hordeum vulgare, winter barley; test: as above; conditions: g of AS/ha: (A) 90, (B) 1200, (A)+(B) 90 + 1200
Experimental: as §1, §2, §4

AVEFA = Avena fatua [5] = test: Greenhouse trial, PE application with different irrigation variations (test method 6); conditions: g of AS/ha: (A) 120, (B) 1200, (A)+(B) 120 + 1200
Experimental: as §1, §2, §3

[6] = test system: MATCH = Matricaria chamomilla; test: as above; conditions: g of AS/ha: (A) 120, (B) 1200, (A)+(B) 120 + 1200
Experimental: as §1, §2, §3

[7] = test system: TRZAW = Triticum aestivum, winter wheat; test: as above; conditions: g of AS/ha: (A) 120, (B) 1200, (A)+(B) 120 + 1200
Experimental: as §1, §2, §3

[8] = test system: HORVS = Hordeum vulgare, summer barley; test: Greenhouse trial, selective post-emergence (PO) action on crop plant (test method 4); conditions: PO application, g of AS/ha: (A) 120, (B) 1200, (A)+(B) 120 + 1200, about 3 weeks after application
Experimental: as §1
as §2, with “group. […]” for “group.”

[9] = test system: HORVW = Hordeum vulgare, winter barley; test: Greenhouse trial, selective pre-emergence (PE) action on crop plant (test method 3); conditions: PE application, g of AS/ha: (A) 90, (B) 1200, (A)+(B) 90 + 1200
Experimental: as §1
as §2, with “group. […]” for “group.”

CCC(CC)Nc1c([N+](=O)[O-])cc(C)c(C)c1[N+](=O)[O-] [(B) pendimethalin, N-(1-ethylpropyl)-3,4-dimethyl-2,6-dinitrobenzenamine]
activity on crop plant TRZAS IU soil (visual assessment, scale 0-100% vs untreated) ([1]; IU soil): 5%
Difference of the soil types Δ^D, TRZAS ([1]; IU/EC73 soil versus IU soil, crop plant): Δ^D −5%
activity on crop plant TRZAS IU/EC73 soil (visual assessment, scale 0-100% vs untreated) ([1]; IU/EC73 soil): 0%
activity STEME IU soil (visual assessment, scale 0-100% vs untreated) (STEME = Stellaria media; IU soil (loamy silt, standard field soil)): 85%
activity STEME IU/EC73 soil (visual assessment, scale 0-100% vs untreated) (STEME = Stellaria media; IU/EC73 soil (heavier soil, higher organic substance)): 55%
Difference of the soil types Δ^D, STEME (STEME = Stellaria media; IU/EC73 soil versus IU soil): Δ^D −30%
activity AVEFA (visual assessment, scale 0-100% vs untreated) (AVEFA = Avena fatua [2]): 70%
activity MATCH (visual assessment, scale 0-100% vs untreated) [3]: 0%
activity on crop plant HORVW (visual assessment, scale 0-100% vs untreated) [4]: 40%
activity AVEFA (visual assessment, scale 0-100% vs untreated) (AVEFA = Avena fatua [5]; irrigation from above): 5%
activity AVEFA (visual assessment, scale 0-100% vs untreated) (AVEFA = Avena fatua [5]; irrigation from below): 10%
activity MATCH (visual assessment, scale 0-100% vs untreated) ([6]; irrigation from above): 30%
activity MATCH (visual assessment, scale 0-100% vs untreated) ([6]; irrigation from below): 18%
activity on crop plant TRZAW (visual assessment, scale 0-100% vs untreated) ([7]; irrigation from above): 20%
activity on crop plant TRZAW (visual assessment, scale 0-100% vs untreated) ([7]; irrigation from below): 5%
activity on crop plant HORVS (visual assessment, scale 0-100% vs untreated) [8]: 10%
activity on crop plant HORVW (visual assessment, scale 0-100% vs untreated) [9]: 50%
